# From patent publication US8747810B2, “Compositions and methods for imaging tissues, organs and tumors” (President and Fellows of Harvard College, priority 2009, dated 2014)
# Read-outs that look alike come from different tables or passages of the source.
# Experiments:
# [1] = target: T1, σ2 receptor (Rattus norvegicus, UniProt Q5U3Y7); assay: σ2 receptor competition binding assay, [3H]-DTG, rat liver membranes
# T1 construct: Rat liver membranes were prepared from male Sprague-Dawley rat livers as previously described; from tissue; host or cells: rat (Sprague-Dawley) liver membranes
# T1 sequence (Q5U3Y7 1-176): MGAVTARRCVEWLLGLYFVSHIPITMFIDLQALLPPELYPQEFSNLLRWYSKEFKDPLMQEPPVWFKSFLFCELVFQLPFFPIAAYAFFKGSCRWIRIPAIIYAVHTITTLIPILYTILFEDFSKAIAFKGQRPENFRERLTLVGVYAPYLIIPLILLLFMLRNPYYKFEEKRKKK
# Protocol: Rat liver membranes were prepared from male Sprague-Dawley rat livers as previously described (Eur. J. Pharmacol.-Mol. Pharmacol. Sect. 1994, 268, 9-18). The in vitro σ2 receptor binding affinities of rhenium coordinated complexes were determined in a competition assay using rat livers and [^3H]-DTG (31 Ci/mmol, NEN Life Science Inc., Cambridge, Mass.) as radioligand in the presence of 10 μM 1-pyrrolidinylethyl 3,4-dichlorophenylacetate oxalate (ACT915 oxalate) to mask σ1 receptors (Bioorg. & Med. Chem. Lett. 2000, 10, 17-18). Competition assays were performed with twelve concentrations of the nonradioactive rhenium complexes ranging from […] to 1×10^−3 and protein samples (0.15 mg of membrane protein) in a total volume of 0.25 mL of Tris-HCl (50 mM, pH 8.0) for 120 min at 25° C. All other manipulations and data analysis were performed as described vide supra for the σ1—receptor assays.
# [2] = target: T2, σ1 receptor (Cavia porcellus, UniProt Q60492); assay: σ1 receptor competition binding assay, [3H]-(+)-pentazocine; design: species or system guinea pig
# T2 construct: The membranes were prepared from guinea pig brain (minus cerebellum) as described above; from tissue; host or cells: guinea pig brain (minus cerebellum) membranes
# T2 sequence (Q60492 whole entry): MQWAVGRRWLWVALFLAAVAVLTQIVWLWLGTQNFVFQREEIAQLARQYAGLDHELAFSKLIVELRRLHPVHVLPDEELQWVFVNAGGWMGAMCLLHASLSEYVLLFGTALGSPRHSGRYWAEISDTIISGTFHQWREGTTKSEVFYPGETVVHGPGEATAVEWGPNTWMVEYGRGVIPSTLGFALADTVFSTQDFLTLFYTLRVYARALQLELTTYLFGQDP
# Protocol: […] See, Mol. Neuropharmacol. 1993, 3, 117-126.
# The membranes were prepared from guinea pig brain (minus cerebellum) as described above and stored at −70° C. Twelve concentrations of the nonradioactive rhenium complexes ranging from 1×10^−11 to 1×10^−3 and protein samples (0.15 mg of membrane protein) were incubated with 5 nM [^3H]-(+)-pentazocine in a total volume of 0.25 mL of Tris-HCl (50 mM, pH 8.0). Incubations were carried out for 120 min at 25° C. All assays were terminated by dilution with 5 mL of ice-cold Tris-HCl (10 mM), pH 8.0, and solution were filtered through glass-fiber filters (Whatman GF/F; presoaked in 0.5% polyethyleneimine for 30 min at 25° C.). Filters were then washed three times with 5 mL of ice-cold Tris-HCl (50 mM, pH 8.0), and counted in Hionic-Fluor cocktail (Packard, Groningen, the Netherlands). The corresponding IC50 values were determined with Origin 6.0 software (OriginLab, Northampton, Mass.) and were used for the calculation of the apparent Ki values with the Cheng-Prusoff equation. See, Biochem. Pharmacol. 1973, 22, 3099-3108.
# [3] = target: T3, 5HT1A receptor (Rattus norvegicus, UniProt P19327); assay: 5HT1A receptor competition binding assay, [3H]-8-OH-DPAT, rat hippocampus
# T3 construct: hippocampal homogenates that were prepared from Sprague Dawley rat hippocampus; from tissue; host or cells: rat (Sprague-Dawley) hippocampus membranes
# T3 sequence (P19327 1-422): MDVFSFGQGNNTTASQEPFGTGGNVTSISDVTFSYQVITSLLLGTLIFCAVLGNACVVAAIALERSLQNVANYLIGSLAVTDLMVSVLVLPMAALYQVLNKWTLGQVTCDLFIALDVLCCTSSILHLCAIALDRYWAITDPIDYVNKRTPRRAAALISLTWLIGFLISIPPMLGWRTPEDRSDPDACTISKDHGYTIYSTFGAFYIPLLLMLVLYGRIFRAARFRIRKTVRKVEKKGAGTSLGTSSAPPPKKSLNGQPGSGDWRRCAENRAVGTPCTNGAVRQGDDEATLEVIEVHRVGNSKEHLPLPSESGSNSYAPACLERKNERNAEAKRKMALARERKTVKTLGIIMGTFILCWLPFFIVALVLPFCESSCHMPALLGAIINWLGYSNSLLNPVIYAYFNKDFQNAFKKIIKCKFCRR
# Protocol: The in vitro 5HT1A binding affinities of rhenium coordinated complexes were determined in a competition assay using rat hippocampus and high-affinity 5HT1A-ligand [^3H]-8-OH-DPAT (135 Ci/mmol, NEN Life Science Inc., Cambridge, Mass.). See, Brain Res. 1995, 673, 217-225.
# Male Sprague-Dawley rats (weighing 150-170 g) were sacrificed using anesthesia agent isoflurane. The brains were rapidly removed, and hippocampus, frontal cortex, hypothalamus, and striatum were hand-dissected on ice and stored at −70° C. Tissue was thawed at room temperature and homogenized using a Brinkmann Polytron tissue disrupter in 50 volumes (wt/vol) of ice-cold 50 mM Tris-HCl buffer (pH 7.4). The suspension was centrifuged twice at 27,000 g for 20 min at 4° C. The membrane pellets were resuspended in 50 volumes of (wt/vol) Tris-HCl buffer and incubated at 37° C. for 20 min in a water bath, before a final centrifugation step (27,000 g; 20 min; 4° C.). The final tissue pellets were stored at −70° C. until assayed.
# Twelve concentrations of the nonradioactive rhenium complexes ranging from 1×10^−11 to 1×10^−4 and protein samples (0.15 mg of membrane protein) were incubated with 1.5 nM [^3H]-8-OH-DPAT in a total volume of 0.25 mL of Tris-HCl (50 mM, pH 7.4, 10 mM MgSO4). Incubations were carried out for 60 min at 25° C. All assays were terminated by dilution with 5 mL of ice-cold Tris-HCl (10 mM), pH 7.4, and solution were filtered through glass-fiber filters (Whatman GF/F; presoaked in 0.5% polyethyleneimine for 30 min at 25° C.). Filters were then washed three times with 5 mL of ice-cold Tris-HCl (50 mM, pH 7.4), and counted in Hionic-Fluor cocktail (Packard, Groningen, the Netherlands). The corresponding IC50 values were determined with Origin 6.0 software (OriginLab, Northampton, Mass.) and were used for the calculation of the apparent Ki values with the Cheng-Prusoff equation. See, Biochem. Pharmacol. 1973, 22, 3099-3108.
# Rhenium complexes were synthesized by the reaction of [ReBr(CO)3(C4H8O)]2 with the final ligands in acetonitrile at room temperature. The in vitro 5-HT1A binding affinities of complexes Re(CO)3-L1-L9 were determined in competitive receptor binding assay using hippocampal homogenates that were prepared from Sprague Dawley rat hippocampus and the high-affinity [^3H]-8-OH-DPAT as the 5HT1A specific ligand.
# The in vitro affinity of Re(CO)3-L complexes for the 5-HT1A receptors were assessed by their ability to compete with the high affinity 5HT1A radioligand [^3H]-8-OH-DPAT.
# [4] = tested on: subcutaneous B16F10 melanoma tumor; assay: Biodistribution of 99mTc complexes in mice bearing subcutaneous B16F10 melanoma tumor; format: in vivo; settings: for tumor uptake and retention (in words): mouse, in vivo
# Excerpt: Biodistribution of 99 mTc complexes in mice bearing subcutaneous B16F10 melanoma tumor was studied for complexes Tc-1-Tc-6.
# [5] = target: D2 receptors (Homo sapiens, UniProt P14416); assay: D2 receptor affinity; format: binding
# Sequence of D2 receptors (P14416 whole entry): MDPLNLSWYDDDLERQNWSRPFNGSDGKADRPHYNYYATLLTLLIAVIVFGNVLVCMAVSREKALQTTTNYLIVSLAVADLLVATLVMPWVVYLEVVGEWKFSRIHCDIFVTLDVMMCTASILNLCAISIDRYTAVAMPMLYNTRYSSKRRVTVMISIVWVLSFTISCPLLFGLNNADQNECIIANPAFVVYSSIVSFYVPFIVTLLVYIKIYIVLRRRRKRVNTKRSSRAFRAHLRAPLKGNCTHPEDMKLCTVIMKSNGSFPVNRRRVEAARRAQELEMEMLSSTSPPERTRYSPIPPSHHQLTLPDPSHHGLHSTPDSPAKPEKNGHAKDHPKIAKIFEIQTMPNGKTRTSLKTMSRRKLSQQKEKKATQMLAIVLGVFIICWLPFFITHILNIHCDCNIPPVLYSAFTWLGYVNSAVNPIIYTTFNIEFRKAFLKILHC
# [6] = quantity not named in table head, methods calculate apparent Ki (Cheng-Prusoff), read-out: σ-2
# [7] = quantity not named in table head, methods calculate apparent Ki (Cheng-Prusoff), read-out: σ-1
# [8] = quantity not named in table head, methods calculate apparent Ki (Cheng-Prusoff), read-out: 5HT1A
"Ki [1, 6]","Ki [2, 7]","Ki [3, 8]",SMILES,also measured
61 ± 3.91 nM,64 ± 5.9 nM,–,O=C1CN(CCCCCCN2Cc3ccccc3C2)CC[S][Re]2(=[O])[S]CC[N]12 (stereo not shown) [Re-44],–
35.6 ± 2.83 nM,5310 ± 973 nM,–,COc1cc2c(cc1OC)CN(CCCCCC[N+]13Cc4ccccc4[O][Re-2]1(=[C]=O)(=[C]=O)(=[C]=O)[n+]1ccccc1C3)C2 (stereo not shown) [Re-L13],–
–,–,120 ± 21 nM,COc1ccccc1C1CCN(CCCCCC[N+]23Cc4ccccc4[O][Re-2]2(=[C]=O)(=[C]=O)(=[C]=O)[n+]2ccccc2C3)CC1 (stereo not shown) [Re-L11],–
–,–,0.42 ± 0.08 nM,CCCN(CCCCCCN1CC[S][Re]2(=[O])[S]CC[N]2C(=O)C1)C1CCc2cccc(O)c2C1 (stereo not shown) [Re-45-HO],–
11.5 ± 0.2 nM,1480 ± 227 nM,–,COc1cc2c(cc1OC)CN(CCCCCCN1CC[S][Re]3(=[O])[S]CC[N]3C(=O)C1)C2 (stereo not shown) [Re-43],–
223 ± 8.78 nM,39.3 ± 1.43 nM,629 ± 12 nM,O=[C]=[Re-2]12(=[C]=O)(=[C]=O)[NH2+]CC[N+]1(CCCCCCN1CCC(c3ccccc3)CC1)Cc1ccccc1[O]2 (stereo not shown) [Re-L16a],–
3.37 nM,4400 ± 280 nM,940 ± 216 nM,COc1cc2c(cc1OC)CN(CCCCCC[N+]13Cc4ccccc4[O][Re-2]1(=[C]=O)(=[C]=O)(=[C]=O)[n+]1ccccc1C3)CC2 (stereo not shown) [Re-L12],–
–,–,48 ± 5 nM,COc1ccccc1C1CCN(CCCCCC[N+]23CC[NH2+][Re-2]2(=[C]=O)(=[C]=O)(=[C]=O)[O]c2ccccc2C3)CC1 (stereo not shown) [Re-L17a],–
43.4 ± 0.99 nM,30 ± 6.3 nM,–,O=C1CN(CCCCCCN2CCC(c3ccccc3)CC2)CC[S][Re]2(=[O])[S]CC[N]12 (stereo not shown) [Re-40],–
223 ± 6.54 nM,29.7 ± 4.31 nM,–,O=C1C[S][Re-]23(=[O])[S]CC[N+]2(CCCCCCN2CCC(c4ccccc4)CC2)CC[N]13 (stereo not shown) [Re-32],–
–,–,91.3 ± 4.1 nM,CCCN(CCCN1CC[S][Re]2(=[O])[S]CC[N]2C(=O)C1)C1CCc2c(cccc2OC)C1 (stereo not shown) [Re-46],–
–,–,26 ± 2.71 nM,CCCN(CCCCCCN1CC[S][Re]2(=[O])[S]CC[N]2C(=O)C1)C1CCc2c(O)cccc2C1 (stereo not shown) [Re-47 HO],–
6420 ± 387 nM,9.12 ± 0.14 nM,439 ± 121 nM,C[N+]1(C)CC[N+]2(CCCCCCN3CCC(c4ccccc4)CC3)Cc3ccccc3[O][Re-2]12(=[C]=O)(=[C]=O)=[C]=O (stereo not shown) [Re-L16b],–

# Second part, the molecule before the results:
SMILES,"Ki [1, 6]","Ki [2, 7]","Ki [3, 8]",also measured
COc1cc2c(cc1OC)CN(CCCCCCN1CC[S][Re]3(=[O])[S]CC[N]3C(=O)C1)CC2 (stereo not shown) [Re-42],12.1 ± 0.61 nM,672 ± 17.6 nM,–,–
[99Tc][O]c1ccccc1CN(CCCN1CCCCC1)Cc1ccccn1.[C-]#[O+].[C-]#[O+].[C-]#[O+] [Tc-4],–,–,–,tumor uptake and retention (in words) [4]: increase in tumor retention over time
COc1ccccc1C1CCN(CCCCCC[N+]23CC[N+](C)(C)[Re-2]2(=[C]=O)(=[C]=O)(=[C]=O)[O]c2ccccc2C3)CC1 (stereo not shown) [Re-L17b],–,–,18 ± 8 nM,–
COc1ccccc1N1CCN(CCC[N+]23Cc4ccccc4[O][Re-5]2([C]#[O+])([C]#[O+])([C]#[O+])[n+]2ccccc2C3)CC1 (stereo not shown) [Re-L1],–,–,–,"Ki ([3]; Example 62, Re(CO)3-L complexes, [3H]-8-OH-DPAT, rat hippocampal homogenates, read-out: Ki, 5-HT1A receptor affinity): 83.2 ± 2.2 nM"
CCCN(CCCCCC[N+]12CC[S][Re-]13(=[O])[S]CC[N]3C(=O)C2)C1CCc2cccc(OC)c2C1 (stereo not shown) [Re-45],–,–,–,Ki [3]: 1.21 ± 0.13 nM; Ki [5]: 1200 nM; Ki [1]: 442 ± 106 nM; Ki [2]: 41 ± 3.58 nM
CCCN(CCCN1CC[S][Re]2(=[O])[S]CC[N]2C(=O)C1)C1CCc2c(O)cccc2C1 (stereo not shown) [Re-46 HO],–,–,81.4 ± 5.24 nM,–
CCN(CC)CC[N+]12CC[N+](CC)(CC)[99Tc-5]1([C]#[O+])([C]#[O+])([C]#[O+])[O]c1ccccc1C2 (stereo not shown) [99 mTc-6],–,–,–,tumor uptake and retention (in words) [4]: poor tumor uptake and retention
[99Tc][O]c1ccccc1CN(CCN1CCCCC1)Cc1ccccn1.[C-]#[O+].[C-]#[O+].[C-]#[O+] [99 mTc-3],–,–,–,tumor uptake and retention (in words) [4]: increase in tumor retention over time
O=C1C[N+]2(CCCCCCCN3CCC(c4ccccc4)CC3)CC[S][Re-]23(=[O])[S]CC[N]13 (stereo not shown) [Re-41],–,–,–,Ki [1]: 21.25 ± 0.19 nM; Ki [2]: 7.6 ± 0.67 nM
[99Tc][O]c1ccccc1CN(CCCCCCN1CCCCC1)Cc1ccccn1.[C-]#[O+].[C-]#[O+].[C-]#[O+] [Tc-5],–,–,–,tumor uptake and retention (in words) [4]: increase in tumor retention over time
O=C1C[S][Re-]23(=[O])[S]CC[N+]2(CCCCCCCN2CCC(c4ccccc4)CC2)CC[N]13 (stereo not shown) [Re-33],–,–,–,Ki [1]: 188 ± 18.8 nM; Ki [2]: 22.9 ± 1.78 nM
CCCN(CCCCCCN1CC[S][Re]2(=[O])[S]CC[N]2C(=O)C1)C1CCc2c(cccc2OC)C1 (stereo not shown) [Re-47],244 ± 8.56 nM,64.3 ± 1.27 nM,15.4 ± 4.06 nM,–
CCN(CC)CCN(Cc1ccccn1)Cc1ccccc1[O][99Tc].[C-]#[O+].[C-]#[O+].[C-]#[O+] [99 mTc-2],–,–,–,tumor uptake ([4]; 1 h postinjection): 3.2 % ID/g; tumor retention over a 6 h period ([4]; share of tumor uptake retained over 6 h): 65%
